{"source": "paper PMC8673761", "about": "“CLN7 is an organellar chloride channel regulating lysosomal function” (Science Advances, 2021)", "key": {"[1]": {"target": "T1, hCLN7 (EGFP-CLN7, MFSD8) (Homo sapiens, UniProt Q8NHS3)", "T1 construct": "full length, 518 residues, N-terminal EGFP tag kept (pEGFP-C2); expressed in HEK293T (endolysosomes); PM-targeted mutant in HeLa", "T1 sequence (Q8NHS3 1-518)": "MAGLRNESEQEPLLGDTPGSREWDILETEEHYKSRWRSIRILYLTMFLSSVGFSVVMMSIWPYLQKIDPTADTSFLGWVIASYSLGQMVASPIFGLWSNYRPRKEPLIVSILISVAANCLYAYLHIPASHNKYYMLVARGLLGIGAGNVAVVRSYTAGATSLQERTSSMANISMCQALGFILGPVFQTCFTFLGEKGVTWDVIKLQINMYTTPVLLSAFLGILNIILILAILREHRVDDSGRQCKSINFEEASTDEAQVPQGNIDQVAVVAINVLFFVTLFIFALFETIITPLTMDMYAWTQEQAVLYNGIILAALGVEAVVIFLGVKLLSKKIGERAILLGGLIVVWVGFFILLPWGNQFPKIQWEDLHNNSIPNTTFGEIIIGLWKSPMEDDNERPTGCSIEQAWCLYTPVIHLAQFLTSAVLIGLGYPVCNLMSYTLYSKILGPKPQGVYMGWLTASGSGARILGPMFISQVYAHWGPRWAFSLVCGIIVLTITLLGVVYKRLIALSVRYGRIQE", "assay": "whole-endolysosomal patch clamp, Cl- current", "format": "cell-based"}, "[2]": {"target": "T2, YCR023C (yeast CLN7 homolog) (Saccharomyces cerevisiae, UniProt P25351)", "T2 construct": "full length, codon-optimised synthetic gene, N-terminal EGFP tag kept (pEGFP-C1); expressed in HeLa cells", "T2 sequence (P25351 1-611)": "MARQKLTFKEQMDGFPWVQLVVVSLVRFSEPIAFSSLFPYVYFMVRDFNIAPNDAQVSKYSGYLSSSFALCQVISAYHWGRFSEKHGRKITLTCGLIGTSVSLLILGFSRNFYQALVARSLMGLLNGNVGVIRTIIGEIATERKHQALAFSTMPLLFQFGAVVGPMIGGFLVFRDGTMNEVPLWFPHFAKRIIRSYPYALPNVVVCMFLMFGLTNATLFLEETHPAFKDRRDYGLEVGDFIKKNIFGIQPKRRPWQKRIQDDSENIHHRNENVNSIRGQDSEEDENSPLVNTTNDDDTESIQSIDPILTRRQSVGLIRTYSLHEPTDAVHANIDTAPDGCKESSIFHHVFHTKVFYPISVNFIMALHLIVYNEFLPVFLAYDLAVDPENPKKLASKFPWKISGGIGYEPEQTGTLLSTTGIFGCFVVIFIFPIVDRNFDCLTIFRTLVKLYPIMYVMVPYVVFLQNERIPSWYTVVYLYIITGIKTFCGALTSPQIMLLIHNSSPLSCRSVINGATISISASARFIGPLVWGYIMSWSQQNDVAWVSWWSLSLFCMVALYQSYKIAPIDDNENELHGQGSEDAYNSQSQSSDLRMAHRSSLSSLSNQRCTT", "assay": "whole-cell patch clamp in HeLa, Cl- current", "format": "cell-based, Homo sapiens", "conditions": "EGFP-tagged; bath 150 mM HCl pH 4.6 (NMDG), pipette pH 7.2"}, "[3]": {"target": "T3, hCLN7 (EGFP-CLN7, MFSD8) (Homo sapiens, UniProt Q8NHS3, L13A/L14A)", "T3 construct": "full length, 518 residues, N-terminal EGFP tag kept (pEGFP-C2); expressed in HEK293T (endolysosomes); PM-targeted mutant in HeLa", "T3 sequence (Q8NHS3 1-518 L13A/L14A)": "T1 sequence (Q8NHS3 1-518) with L13A, L14A", "assay": "whole-cell patch clamp in HeLa, Cl- current", "format": "cell-based", "conditions": "EGFP-tagged, plasma membrane-targeted; bath 150 mM HCl pH 4.6 (NMDG), pipette pH 7.2"}}, "note": "Numbering of substitutions follows the chain as printed."}
{"smiles": "O=S(=O)(O)c1cc(N=C=S)ccc1/C=C/c1ccc(N=C=S)cc1S(=O)(=O)O", "note": "[DIDS, 4,4‘-diisothiocyano-2,2‘-stilbenedisulfonate]", "values": [{"measurement": "IC50", "setting": "[1]", "value": "32.3 ± 6.08", "unit": "µM"}, {"measurement": "whole-cell patch clamp in HeLa, Cl- current", "setting": "[2]", "value": "including outward rectification and sensitivities to DIDS, NFA, and NPPB"}]}
{"smiles": "O=C(O)c1cccnc1Nc1cccc(C(F)(F)F)c1", "note": "[NFA]", "values": [{"measurement": "IC50", "setting": "[1]", "value": "42.4 ± 7.13", "unit": "µM"}, {"measurement": "whole-cell patch clamp in HeLa, Cl- current", "setting": "[2]", "value": "including outward rectification and sensitivities to DIDS, NFA, and NPPB"}, {"measurement": "whole-cell patch clamp in HeLa, Cl- current", "setting": "[3]", "value": "the whole-cell currents were also outward-rectifying and sensitive to pH, DIDS, NFA, and NPPB"}]}
{"smiles": "O=C(O)c1cc([N+](=O)[O-])ccc1NCCCc1ccccc1", "note": "[NPPB, 5-Nitro-2-(3-phenylpropylamino)benzoic acid]", "values": [{"measurement": "IC50", "setting": "[1]", "value": "0.0069 ± 0.00157", "unit": "µM"}, {"measurement": "whole-cell patch clamp in HeLa, Cl- current", "setting": "[2]", "value": "including outward rectification and sensitivities to DIDS, NFA, and NPPB"}, {"measurement": "whole-cell patch clamp in HeLa, Cl- current", "setting": "[3]", "value": "the whole-cell currents were also outward-rectifying and sensitive to pH, DIDS, NFA, and NPPB"}]}
